Experiments:
[1] = tested on: murine leukaemia L1210; set-up: method as in Leopold et al, 1984; details: ref Leopold et al, 1984; cited from earlier work
[2] = tested on: GLC4/VM20x; assay: Microtiterwell tetrazolium growth-inhibition assay, medium with 40% pooled human plasma; format: cell-based; details: GLC4, 96 h; 4 days; medium with 40% human plasma; 95% CI 5.3-6.5
Source text: (§1) Fostriecin (CI-920) is a topoisomerase (topo) II catalytic activity inhibitor (Boritzki et al, 1988) (Figure 1). This novel class of topo II-targeting drugs is considered of potential value for treatment of patients with tumours resistant to classic topo II poisons, including anthracyclines and podophyllotoxins (Cummings and Smyth, 1993). The nuclear enzyme topo II is essential for the regulation of DNA conformation (reviewed in Osheroff et al, 1991). Central in its action is the formation of a complex with DNA. Stabilization of this complex by topo II poisons induces DNA damage and cell death (Froelich-Ammon and Osheroff, 1995). Decreased complex formation due to decreased topo II levels is considered to be an important mechanism of tumour-resistance to topo II poisons (Beck and Danks, 1991). The topo II catalytic inhibitor fostriecin is expected to have increased activity against tumour cells with low topo II levels and this was confirmed in in vitro studies (De Jong et al, 1991). […] Drug pharmacokinetics was analysed with high performance liquid chromatography with UV-detection. […] A metabolite, most probably dephosphorylated fostriecin, was detected in plasma and urine. […]

[3] = tested on: GLC4/VM20x; set-up: method as in Withoff et al, 1996; details: ref Withoff et al, 1996; cited from earlier work
[4] = tested on: murine leukaemia P388; set-up: method as in Leopold et al, 1984; details: ref Leopold et al, 1984; cited from earlier work
[5] = tested on: solid tumour; assay: Tumour response in phase I patients; format: in vivo, human; details: 2-20 mg m-2 day-1, days 1-5 every 4 weeks; 10 patients with measurable disease
Source text: as §1

C[C@@](O)(/C=C/[C@H]1CC=CC(=O)O1)[C@@H](C[C@@H](O)\C=C/C=C\C=C\CO)OP(=O)(O)O [fostriecin]
activity against L1210 [1]: active | IC50 [2]: 5.9 µM | sensitivity of GLC4/VM20x relative to GLC4 [3]: 1.7 times | activity against P388 [4]: active | tumour responses [5]: No tumour responses

Reference: PMC2362650, “Phase I and pharmacokinetic study of the topoisomerase II catalytic inhibitor fostriecin” (British Journal of Cancer, 1999)
